The subject of one data set is fruit flies. The data set is described as follows: Longevity comparison of erythritol with other human-safe sweet alcohols. Format: in vivo, Drosophila melanogaster. Conditions: 1 M sweetener in standard fly food, 17 days; for longevity compared to sucrose control: log rank test. As for the experimental part:
An experiment was conducted to compare the effectiveness of erythritol with other human-safe sweet alcohols: D-mannitol, maltitol, sucrose, and xylitol. The concentration of all sweet alcohols were 1M. Flies were raised for 17 days on standard fly food that contained 1 M concentrations of each sweetener treatment. Death of flies was recorded daily as before; each treatment was replicated on three vials of 10 flies each for 30 subjects/treatment. Differences in longevity were analyzed using the Kaplan-Meier survival analysis log rank test, making all pairwise comparisons among treatments.

Data set [1] deals with Drosophila melanogaster. The data set is described as follows: Two-way choice experiments, longevity. As to conditions: 30 days. Format: in vivo. Here is the method: Foods containing 2 M erythritol, 1M erythritol and 1M sucrose were prepared for paired presentations in open choice tests. In each treatment one food type contained 0.05% brilliant blue FCF (Fisher 50-727-25). The blue dye allowed visual confirmation of feeding on the dyed food in the pair. The flies were presented with access to two food choices by using a modified cotton stopper with approximately a 1.5 cm diameter hole to connect each pair of food tubes. […] The final choice treatment was between blue 2M erythritol food and non-blue 1M sucrose food (this treatment provides a comparison with the 1 M erythritol/1 M erythritol treatment as a test of dilution of toxicity by alternative food sources; blue guts would confirm erythritol was being consumed in the presence of sucrose). The number of flies with visible blue gut contents and mortality daily were recorded for 30 days. Analyses were conducted with SPSS software v. 20 (IBM corporation 2011). Fly longevity data were analyzed using survival analysis with right-hand censoring of subjects that lived to the end of the study or were lost for reasons other than death. Test were run for differences in survival distributions [Pr(flies alive) versus insect age] using the log-rank (Mantel-Cox) test to make all pairwise comparisons among treatments within each experiment.

Data set [2] deals with Drosophila melanogaster. The data set is described as follows: Concentration trials of erythritol on fly longevity. Format: in vivo. Here is the method: Standard fly foods were prepared as previously described, and then were treated with 2M, 1M, 0.5M and 0.1M concentrations of erythritol, using 0.5M sucrose as control. 0 to 24 hour-old Drosophila were placed on these foods and mortality was recorded daily for 35 days as above. Analyses were conducted with SPSS software v. 20 (IBM corporation 2011). Fly longevity data were analyzed using survival analysis with right-hand censoring of subjects that lived to the end of the study or were lost for reasons other than death. Test were run for differences in survival distributions [Pr(flies alive) versus insect age] using the log-rank (Mantel-Cox) test to make all pairwise comparisons among treatments within each experiment.

Another data set relates to humans. Conditions: oral consumption; cited from earlier work.
The test system of data set [3] is Drosophila melanogaster. The data set is described as follows: Longevity assay of adult flies raised on food containing sweeteners. Format: in vivo. As to conditions: repeat study with blue dye food. Here is the method: All animals were cultured at 25° C., kept at 50-60% humidity, and were raised under a standard 12:12 light dark cycle. For each experimental treatment, n=30 flies were tested in groups of 10 per tube, and three tubes per treatment. Tubes were kept on their side to minimize subject becoming mired in the food. Foods were replaced twice a week. The total number of fruit flies used for these experiments was 780, with 300 used for two initial trials testing mortality among store-brand sweeteners, 210 used for repeating this with blue dye and pure erythritol, 120 for choice trials and 150 for concentration trials.
Standard Drosophila food for larval culturing consisted of water, cornmeal, yeast, molasses, and agar, as previously described (Chakraborty, et al., 2011, PLoS ONE 6: e20799). […] The addition of cornmeal and yeast assured the flies still received sufficient carbohydrates and protein in addition to any effects of the treatment additives.
Drosophila food was combined with an equal weight/volume (0.0238 g/ml) of one non-nutritive sweetener (TRUVIA, EQUAL, SPLENDA, SWEET'NLOW, or PUREVIA) or a control nutritive sweetener (controls: sucrose or corn syrup). Wild type (Canton S) larvae were initially raised on the standard food, and 0-12 hour old adult flies were transferred to foods containing one non-nutritive sweetener or a control treatment. […] The number of dead flies were scored daily.

Data on four compounds can be found in patent publication US20200390095A1, “USE OF ERYTHRITOL OR COMPOSITIONS COMPRISING SAME AS MAMMAL-SAFE INSECTICIDES” (Drexel University, priority 2014, published 2020).

For `OC[C@@H](O)[C@@H](O)[C@H](O)[C@H](O)CO` [D-mannitol], the “longevity compared to sucrose control” value in the data set on fruit flies is reported as “slightly but significantly reduced longevity”.

Take `OC[C@@H](O)[C@@H](O)CO` [erythritol, (2R,3S)-butane-1,2,3,4-tetraol]: the “longevity relative to sucrose:sucrose choice” value in the data set on Drosophila melanogaster [1] (choice between 1M sucrose and 1M erythritol) is reported as “significantly decreased longevity”; with Drosophila melanogaster [1] (choice between 1M sucrose and 2M erythritol), “significantly reduced”. Also, in the data set on Drosophila melanogaster [1] (choice chamber), the “survival distributions, 2M erythritol/1M sucrose choice versus 1M erythritol/1M erythritol” value is recorded as “nearly identical”. In the data set with fruit flies (mean ± SE), the mean fly longevity turned out to be 4.7 ± 0.15 days. Besides, the “longevity compared to control food containing 0.5M sucrose” value is “no significant difference in longevity” in the data set on Drosophila melanogaster [2] (0.1M erythritol in food, observations terminated at 35 days); “significant reductions in longevity” with Drosophila melanogaster [2] (0.5M erythritol in food, 35 days); “significant reductions in longevity” with Drosophila melanogaster [2] (1M erythritol in food, 35 days). The “effect on longevity compared to all other treatments” value with Drosophila melanogaster [2] (2M erythritol in food, 35 days) is “significant and severe effect on longevity”. Further, in the data set with humans, the “tolerability of consumption by humans” value was “very well tolerated”. Besides, the “longevity, erythritol versus TRUVIA treatment” value with Drosophila melanogaster [3] (0.0238 g/ml) is on record as “did not differ”. The “longevity compared to PUREVIA, EQUAL, sucrose and corn syrup” value with Drosophila melanogaster [3] (0.0238 g/ml of each sweetener) is “significant decreases in longevity”.

`OC[C@@H](O)[C@@H](O[C@H]1O[C@H](CO)[C@@H](O)[C@H](O)[C@H]1O)[C@H](O)[C@@H](O)CO` [maltitol]: the “longevity compared to sucrose control” value with fruit flies was “did not differ from the control”.

For the compound `OC[C@@H](O)[C@H](O)[C@@H](O)CO` [xylitol], the “longevity compared to sucrose control” value in the data set with fruit flies is listed as “did not differ from the control”.
